Key:
H23 cell line = assay: Hypomethylating drug treatment of H23 cells, methylation read out by 15-plex FLAP-Melt; format: cell-based, human; settings: 500 nM, course of 7 days
Description: (§1) FIGS. 24A-24D. Methylation analysis in Aza-treated cell lines. Normalized methylation levels in untreated and 500 nM Aza-treated cells for H23 (A) and H520 (B) cell lines. Relative methylation changes in Aza-treated cells, normalized to untreated controls, are shown as clustered bar plots. Each cluster represents a loci from the 15-plex panel, with bars indicating different time points. (C) H23 cell line. (D) H520 cell line.
(§2) A notable application of digital PCR-based cfDNA tests is longitudinal disease progression monitoring over and after a course of treatment due to the quantification capability of the technology. Next, we sought to evaluate the performance of our assay in detecting multiple methylation biomarkers in real biological samples with a focus on the ability of our assay to quantify methylation level changes. We started with two cancer cell lines, H23 and H520, derived from lung tissues of NSCLC patients. To replicate a typical treatment monitoring scenario, we conducted hypomethylating drug treatment on the cell lines using 5-Azacytidine (5-Aza), a drug that can irreversibly bind to DNA methyltransferase after being incorporated into DNA and inhibits its activity. H520 and H23 were treated with 5-Aza at 500 nM over a course of 5 and 7 days, respectively. […]

H520 cell line = assay: Hypomethylating drug treatment of H520 cells, methylation read out by 15-plex FLAP-Melt; format: cell-based, human; settings: 500 nM, course of 5 days
Description: as §1, §2

`Nc1ncn([C@@H]2O[C@H](CO)[C@@H](O)[C@H]2O)c(=O)n1` [5-Aza, 5-Azacytidine] was tested, and the “confluency rate of treated cells compared with untreated cells” value (H23 cell line) was “much lower”, the “methylation level of targets (15-plex panel) in treated cells” value (H23 cell line; vs untreated cells, majority of the targets) was “decreasing trend” and the “confluency rate of treated cells compared with untreated cells” value (H520 cell line) was “much lower”. The “methylation levels of targets (15-plex panel) in treated cells” value (H520 cell line; vs untreated cells) was “decreased overtime”.

Reference: patent US20250320556A1, “METHODS AND RELATED ASPECTS FOR DIGITAL MULTI-TEMPERATURE FLUOROMETRIC DETECTION” (THE JOHNS HOPKINS UNIVERSITY, priority 2024, published 2025)
